Laboratory results as given in US20120324604A1, “PESTICIDAL MIXTURES CONTAINING ISOXAZOLINE DERIVATIVES AND A FUNGICIDE” (priority 2010, published 2012).

Columns and labels:
Format in all cases: cell-based
[1] = tested on: Mycosphaerella arachidis (syn. Cercospora arachidicola); experiment: Mycosphaerella arachidis (Brown Leaf Spot of Groundnut) growth inhibition, microtiter plate, photometric; details: alone
Procedure: Mycosphaerella arachidis (syn. Cercospora arachidicola), Brown Leaf Spot of Groundnut (Peanut):
(§1) Conidia of the fungus from cryogenic storage were directly mixed into nutrient broth (potato dextrose broth). After placing a (DMSO) solution of the test compounds into a microtiter plate (96-well format) the nutrient broth containing the fungal spores was added.

Septoria tritici = Septoria tritici (Leaf Blotch) growth inhibition, microtiter plate, photometric; details: for AVERAGE DEAD IN % A1: A1 alone; for AVERAGE DEAD IN %: alone
Procedure: Septoria tritici (Leaf Blotch):
as §1

Rhizoctonia solani = Rhizoctonia solani (Foot Rot, Damping-Off) growth inhibition, microtiter plate, photometric
Procedure: Rhizoctonia solani (Foot Rot, Damping-Off):
Mycelial fragments of the fungus from cryogenic storage were directly mixed into nutrient broth (potato dextrose broth). After placing a (DMSO) solution of the test compounds into a microtiter plate (96-well format) the nutrient broth containing the fungal spores was added.

[2] = tested on: Glomerella lagenarium (syn. Colletotrichum lagenarium); experiment: Glomerella lagenarium (Anthracnose of Cucurbits) growth inhibition, microtiter plate, photometric; details: alone
Procedure: Glomerella lagenarium (syn. Colletotrichum lagenarium), Anthracnose of Cucurbits:
as §1

Gaeumannomyces graminis = Gaeumannomyces graminis growth inhibition, microtiter plate, photometric
Procedure: Mycelial fragments of the fungus from cryogenic storage were directly mixed into nutrient broth (potato dextrose broth). After placing a (DMSO) solution of the test compounds into a microliter plate (96-well format) the nutrient broth containing the fungal spores was added.

Pythium ultimum = Pythium ultimum (Damping Off) growth inhibition, microtiter plate, photometric
Procedure: Pythium ultimum (Damping Off):
Mycelial fragments of the fungus, prepared from a fresh liquid culture, were directly mixed into nutrient broth (potato dextrose broth). After placing a (DMSO) solution of the test compounds into a microtiter plate (96-well format) the nutrient broth containing the fungal spores was added.

Fusarium culmorum = Fusarium culmorum (Root Rot) growth inhibition, microtiter plate, photometric; details: alone
Procedure: Fusarium culmorum (Root Rot):
as §1

[3] = applied alone, 0.0390625 ppm AI
[4] = single compound at 0.0390625 ppm AI
[5] = single compound at 0.078125 ppm AI
[6] = single compound at 0.15625 ppm AI
[7] = single compound at 0.3125 ppm AI
[8] = single compound at 0.625 ppm AI

Cc1cc(C2=NOC(c3cc(Cl)cc(Cl)c3)(C(F)(F)F)C2)ccc1C(=O)NC1(C)CSC1 (racemic) [A1]
0%: AVERAGE DEAD IN % ([1]; 0.0390625 ppm AI) | AVERAGE DEAD IN % ([1]; 0.078125 ppm AI) | AVERAGE DEAD IN % ([1]; 0.15625 ppm AI) | AVERAGE DEAD IN % ([1]; 0.3125 ppm AI) | AVERAGE DEAD IN % ([1]; 0.625 ppm AI) | AVERAGE DEAD IN % ([1]; 1.25 ppm AI) | AVERAGE DEAD IN % ([1]; 2.5 ppm AI) | AVERAGE DEAD IN % ([1]; 5 ppm AI) | AVERAGE DEAD IN % ([1]; 10 ppm AI) | AVERAGE DEAD IN % A1 (Septoria tritici; 0.0390625 ppm AI) | AVERAGE DEAD IN % A1 (Septoria tritici; 0.078125 ppm AI) | AVERAGE DEAD IN % A1 (Septoria tritici; 0.15625 ppm AI) | AVERAGE DEAD IN % A1 (Septoria tritici; 0.3125 ppm AI) | AVERAGE DEAD IN % A1 (Septoria tritici; 0.625 ppm AI) | AVERAGE DEAD IN % A1 (Septoria tritici; 1.25 ppm AI) | AVERAGE DEAD IN % A1 (Septoria tritici; 2.5 ppm AI) | AVERAGE DEAD IN % A1 (Septoria tritici; 5 ppm AI) | AVERAGE DEAD IN % A1 (Septoria tritici; 10 ppm AI) | AVERAGE DEAD IN % A1 (Septoria tritici; 20 ppm AI) | AVERAGE DEAD IN % (Septoria tritici; 0.0390625 ppm AI) | AVERAGE DEAD IN % (Septoria tritici; 0.078125 ppm AI) | AVERAGE DEAD IN % (Septoria tritici; 0.15625 ppm AI) | AVERAGE DEAD IN % (Septoria tritici; 0.3125 ppm AI) | AVERAGE DEAD IN % (Septoria tritici; 0.625 ppm AI) | AVERAGE DEAD IN % (Septoria tritici; 1.25 ppm AI) | AVERAGE DEAD IN % (Septoria tritici; 2.5 ppm AI) | AVERAGE DEAD IN % (Septoria tritici; 5 ppm AI) | AVERAGE DEAD IN % (Septoria tritici; 10 ppm AI) | AVERAGE DEAD IN % (Septoria tritici; 20 ppm AI) | AVERAGE DEAD IN % (Rhizoctonia solani; [3]) | AVERAGE DEAD IN % (Rhizoctonia solani; applied alone, 0.078125 ppm AI) | AVERAGE DEAD IN % (Rhizoctonia solani; applied alone, 0.15625 ppm AI) | AVERAGE DEAD IN % (Rhizoctonia solani; applied alone, 0.3125 ppm AI) | AVERAGE DEAD IN % (Rhizoctonia solani; applied alone, 0.625 ppm AI) | AVERAGE DEAD IN % (Rhizoctonia solani; applied alone, 1.25 ppm AI) | AVERAGE DEAD IN % (Rhizoctonia solani; applied alone, 2.5 ppm AI) | AVERAGE DEAD IN % (Rhizoctonia solani; applied alone, 5 ppm AI) | AVERAGE DEAD IN % (Rhizoctonia solani; applied alone, 10 ppm AI) | AVERAGE DEAD IN % (Rhizoctonia solani; applied alone, 20 ppm AI) | AVERAGE DEAD IN % (Rhizoctonia solani; [4]) | AVERAGE DEAD IN % (Rhizoctonia solani; [5]) | AVERAGE DEAD IN % (Rhizoctonia solani; [6]) | AVERAGE DEAD IN % (Rhizoctonia solani; [7]) | AVERAGE DEAD IN % (Rhizoctonia solani; [8]) | AVERAGE DEAD IN % (Rhizoctonia solani; single compound at 1.25 ppm AI) | AVERAGE DEAD IN % (Rhizoctonia solani; single compound at 2.5 ppm AI) | AVERAGE DEAD IN % (Rhizoctonia solani; single compound at 5 ppm AI) | AVERAGE DEAD IN % (Rhizoctonia solani; single compound at 10 ppm AI) | AVERAGE DEAD IN % (Rhizoctonia solani; single compound at 20 ppm AI) | AVERAGE DEAD IN % ([2]; 0.0390625 ppm AI) | AVERAGE DEAD IN % ([2]; 0.078125 ppm AI) | AVERAGE DEAD IN % ([2]; 0.15625 ppm AI) | AVERAGE DEAD IN % ([2]; 0.3125 ppm AI) | AVERAGE DEAD IN % ([2]; 0.625 ppm AI) | AVERAGE DEAD IN % ([2]; 1.25 ppm AI) | AVERAGE DEAD IN % ([2]; 2.5 ppm AI) | AVERAGE DEAD IN % ([2]; 5 ppm AI) | AVERAGE DEAD IN % ([2]; 10 ppm AI) | AVERAGE DEAD IN % ([2]; 20 ppm AI) | AVERAGE DEAD IN % (Gaeumannomyces graminis; [3]) | AVERAGE DEAD IN % (Gaeumannomyces graminis; applied alone, 0.078125 ppm AI) | AVERAGE DEAD IN % (Gaeumannomyces graminis; applied alone, 0.15625 ppm AI) | AVERAGE DEAD IN % (Gaeumannomyces graminis; applied alone, 0.3125 ppm AI) | AVERAGE DEAD IN % (Gaeumannomyces graminis; applied alone, 0.625 ppm AI) | AVERAGE DEAD IN % (Gaeumannomyces graminis; applied alone, 1.25 ppm AI) | AVERAGE DEAD IN % (Gaeumannomyces graminis; applied alone, 2.5 ppm AI) | AVERAGE DEAD IN % (Gaeumannomyces graminis; applied alone, 5 ppm AI) | AVERAGE DEAD IN % (Gaeumannomyces graminis; applied alone, 10 ppm AI) | AVERAGE DEAD IN % (Gaeumannomyces graminis; applied alone, 20 ppm AI) | AVERAGE DEAD IN % (Gaeumannomyces graminis; [4]) | AVERAGE DEAD IN % (Gaeumannomyces graminis; [5]) | AVERAGE DEAD IN % (Gaeumannomyces graminis; [6]) | AVERAGE DEAD IN % (Gaeumannomyces graminis; [7]) | AVERAGE DEAD IN % (Gaeumannomyces graminis; [8]) | AVERAGE DEAD IN % (Gaeumannomyces graminis; single compound at 1.25 ppm AI) | AVERAGE DEAD IN % (Gaeumannomyces graminis; single compound at 2.5 ppm AI) | AVERAGE DEAD IN % (Gaeumannomyces graminis; single compound at 5 ppm AI) | AVERAGE DEAD IN % (Gaeumannomyces graminis; single compound at 10 ppm AI) | AVERAGE DEAD IN % (Gaeumannomyces graminis; single compound at 20 ppm AI) | AVERAGE DEAD IN % (Pythium ultimum; [4]) | AVERAGE DEAD IN % (Pythium ultimum; [5]) | AVERAGE DEAD IN % (Pythium ultimum; [6]) | AVERAGE DEAD IN % (Pythium ultimum; [7]) | AVERAGE DEAD IN % (Pythium ultimum; [8]) | AVERAGE DEAD IN % (Pythium ultimum; single compound at 1.25 ppm AI) | AVERAGE DEAD IN % (Pythium ultimum; single compound at 2.5 ppm AI) | AVERAGE DEAD IN % (Pythium ultimum; single compound at 5 ppm AI) | AVERAGE DEAD IN % (Pythium ultimum; single compound at 10 ppm AI) | AVERAGE DEAD IN % (Pythium ultimum; single compound at 20 ppm AI) | AVERAGE DEAD IN % (Fusarium culmorum; 0.625 PPM AI) | AVERAGE DEAD IN % (Fusarium culmorum; 1.25 PPM AI) | AVERAGE DEAD IN % (Fusarium culmorum; 2.5 PPM AI) | AVERAGE DEAD IN % (Fusarium culmorum; 5 PPM AI) | AVERAGE DEAD IN % (Fusarium culmorum; 10 PPM AI) | AVERAGE DEAD IN % (Fusarium culmorum; 20 PPM AI)
